BindingDB's records for doi:10.1021/np200492k (Seoul National University, 2011)

Experiments:
Isocitrate lyase = Isocitrate lyase (Candida albicans, UniProt Q9P8Q7); assay: Inhibition of Candida albicans isocitrate lyase
Sortase family protein = target: T1, Sortase family protein (Staphylococcus aureus, UniProt Q9S446); assay: Inhibition of recombinant Staphylococcus aureus ATCC 6538p sortase lacking the N-terminal membrane anchor domain expressed in Escherichia coli cells TOP10 using Dabcyl-QALPETGEE-Edans substrate measured after 1 hr by fluorescence S13 spectrophotometry
T1 sequence (Q9S446 whole entry): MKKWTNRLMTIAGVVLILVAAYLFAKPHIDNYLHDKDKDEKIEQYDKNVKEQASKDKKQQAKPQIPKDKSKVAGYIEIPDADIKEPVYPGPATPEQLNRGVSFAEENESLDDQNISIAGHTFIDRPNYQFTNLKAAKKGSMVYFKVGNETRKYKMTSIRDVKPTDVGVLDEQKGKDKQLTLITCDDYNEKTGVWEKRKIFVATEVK

Sequence of Isocitrate lyase (Q9P8Q7 whole entry, the tested form may be a part): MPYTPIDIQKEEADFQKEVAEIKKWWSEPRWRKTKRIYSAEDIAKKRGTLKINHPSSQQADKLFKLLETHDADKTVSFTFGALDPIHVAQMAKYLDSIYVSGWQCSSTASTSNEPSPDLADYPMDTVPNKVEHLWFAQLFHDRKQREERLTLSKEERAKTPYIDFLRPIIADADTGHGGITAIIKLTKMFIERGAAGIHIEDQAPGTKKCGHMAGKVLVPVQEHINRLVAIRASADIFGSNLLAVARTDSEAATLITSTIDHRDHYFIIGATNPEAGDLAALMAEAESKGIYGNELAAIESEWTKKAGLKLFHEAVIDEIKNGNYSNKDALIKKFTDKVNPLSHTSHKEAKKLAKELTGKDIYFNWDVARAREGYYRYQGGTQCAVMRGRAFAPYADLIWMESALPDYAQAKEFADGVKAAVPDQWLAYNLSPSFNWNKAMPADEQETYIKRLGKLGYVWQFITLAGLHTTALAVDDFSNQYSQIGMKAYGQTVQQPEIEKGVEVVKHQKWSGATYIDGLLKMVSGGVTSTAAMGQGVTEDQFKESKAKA

Row | IC50 (Isocitrate lyase) | SMILES | IC50 (Sortase family protein)
1 | 17 µM | CC1(C)CCC[C@]2(C)[C@H]3CC/C(=C\OS(=O)(=O)O)[C@H](CCc4ccoc4)[C@@]3(C)CC[C@@H]12 | 
2 |  | O=C(O)c1cc[c]([Hg][OH])cc1 | 116 µM
